Assay results as given in patent US12012390B2, “Flavone compounds for the treatment and prophylaxis of hepatitis B virus disease” (priority 2018, dated 2024).
Like-named read-outs stand apart in the source and are kept apart here.

Columns and labels:
[1] = test system: HBV in primary human hepatocytes (PHH); assay: Cryopreserved primary human hepatocytes (PHH) HBV infection assay; type: cell-based; details: HBV-infected cryopreserved PHH, 9 days post-compound treatment, extracellular HBsAg by CLIA, read-out: HBsAg IC50
Experimental: This assay is used to confirm the anti-HBV effect of the compounds in HBV PHH infection assay. Cryopreserved PHH (BioreclamationIVT, Lot YJM) was thawed at 37° C. and gently transferred into pre-warmed InVitroGRO HT medium (BioreclamationIVT, Cat. S03317). The mixture was centrifuged at 70 relative centrifugal force (RCF) for 3 minutes at RT, and the supernatant was discarded. Pre-warmed InVitroGRO CP medium (BioreclamationIVT, Cat #S03316) was added to the cell pellet to gently re-suspend cells. The cells were seeded at the density of 5.8×10^4 cells per well to collagen I coated 96-well plate (Gibco, Cat. A1142803) with the InVitroGRO CP medium. All plates were incubated at 37° C. with 5% CO2 and 85% humidity.
At 20 hours after plating, the medium was changed to PHH culture medium (Dulbecco's Modified Eagle Medium (DMEM)/F12 (1:1) (Gibco, Cat. 11320-033), 10% fetal bovine serum (Gibco Cat. 10099141), 100 U/mL penicillin, 100 μg/mL streptomycin (Gibco, Cat. 151401-122), 5 ng/mL human epidermal growth factor (Invitrogen Cat. PHG0311L), 20 ng/mL dexamethasone (Sigma, Cat. D4902) and 250 ng/mL human recombinant insulin (Gibco, Cat. 12585-014)). And the cells were incubated at 37° C. with 5% CO2 and 85% humidity for 4 hours. The medium was then changed to pre-warmed PHH culture medium containing 4% polyethylene glycol (PEG) MW8000 (Sigma, Cat. P1458-50ML) and 1% DMSO (Sigma, Cat. D2650). 5.8×10^6 genomic equivalents of HBV were added into the medium.
At 24 hours post-infection, the cells were gently washed with PBS and refreshed with PHH culture medium supplemented with 1% DMSO, and 0.25 mg/mL Matrix gel (Corning, Cat. 356237) at 200 μL per well. All plates were immediately placed in at 37° C. CO2 incubator.
24 hours later, serial dilutions of compounds made with DMSO were further diluted with the same culture medium (PHH culture medium supplemented with 1% DMSO and 0.25 mg/mL Matrix gel as described above) before they were added to the cells to reach desired final compound concentrations and 1% DMSO concentration. The medium containing the compounds were refreshed every three days.
At 9 days post-compound treatment, extracellular HBsAg level were measured with Chemiluminescence Immuno Assay (CLIA) kit (Autobio, HBsAg Quantitative CLIA). Extracellular HBV DNA was extracted by MagNA Pure 96 system (Roche) and then determined by quantitative PCR with the following primers and probe: […]
HBsAg IC50 and HBV DNA IC50 values were derived from the dose-response curve using 4 parameter logistic curve fit method. The compounds of formula (I) have HBsAg IC50<20 μM, particularly <1 μM; and HBV DNA IC50<50 μM. Test results of the compounds of this invention as well as the reference compounds in Cryopreserved PHH assay are given in Table 2 and Table 3.

[2] = test system: HBeAg level (surrogate marker for cccDNA) in HepDES19 cells; assay: Engineered HepDES19 primary screen assay (HBeAg as surrogate marker for cccDNA); type: cell-based, HBV
Procedure, shortened: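 HepDES19 cells were induced by Tet withdrawal for 8 days, then exposed to half-log compound dilutions (1% DMSO) for 5 days at 37° C. HBeAg, a cccDNA surrogate, was measured by ELISA; viability by CCK-8. IC50 from 4-parameter logistic fit.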

[3] = Hepatitis B virus, Hepatocyte, 216 h
[4] = Hepatitis B virus, HepDES19, 120 h, read-out: IC50 (HBeAg) in HepDES19 primary screen assay, HepDES19 cells, 5 days incubation with compound, HBeAg by ELISA

SMILES | IC50 [1, 3] | IC50 [2, 4] | IC50 [1] | IC50 ([2]; read-out: IC50 (HBeAg) in HepDES19 primary screen assay, HepDES19 cells, 5 days incubation with compound, HBeAg by ELISA)
CC(COc1ccc(-c2cc(=O)c3cccc(Cl)c3o2)cc1)OC1CC(C(=O)O)C1 (centres unmarked) [Example 12, 3-[2-[4-(8-chloro-4-oxo-chromen-2-yl)phenoxy]-1-methyl-ethoxy]cyclobutanecarboxylic acid] | 210 nM | 1070 nM |  | 
O=c1cc(-c2ccc(OCCO[C@H]3C[C@@H](C(=O)O)C3)c(C3CC3)c2)oc2c(Cl)cccc12 [Example 45, Cis-3-[2-[4-(8-chloro-4-oxo-chromen-2-yl)-2-cyclopropyl-phenoxy]ethoxy]cyclobutanecarboxylic acid] | 530 nM | 13200 nM |  | 
N#Cc1cc(-c2cc(=O)c3cccc(Cl)c3o2)ccc1OCCOC1CC(C(=O)O)C1 (centres unmarked) [Example 46, 3-[2-[4-(8-chloro-4-oxo-chromen-2-yl)-2-cyano-phenoxy]ethoxy]cyclobutanecarboxylic acid] | 130 nM | 16000 nM |  | 
O=c1cc(-c2ccc(OCCO[C@H]3C[C@@H](C(=O)O)C3)nc2)oc2c(Cl)cccc12 (single isomer, unassigned) [Example 38-B, 3-[2-[[5-(8-chloro-4-oxo-chromen-2-yl)-2-pyridyl]oxy]ethoxy]cyclobutanecarboxylic acid] |  |  | 880 nM | 760 nM
O=C(O)c1cccc(OCC(O)COc2ccc(-c3cc(=O)c4cccc(Cl)c4o3)cc2)c1 (centres unmarked) [Example 14, 3-[3-[4-(8-chloro-4-oxo-chromen-2-yl)phenoxy]-2-hydroxy-propoxy]benzoic acid] | 19200 nM | 20400 nM |  | 
O=C(O)COC1CC(COc2ccc(-c3cc(=O)c4cccc(Cl)c4o3)cc2)C1 (centres unmarked) [Example 8, 2-[3-[[4-(8-chloro-4-oxo-chromen-2-yl)phenoxy]methyl]cyclobutoxy]acetic acid] | 120 nM | 1340 nM |  | 
O=c1cc(-c2ccc(OCCO[C@H]3C[C@@H](C(=O)O)C3)cc2)oc2c(Cl)ccc(O)c12 [Example 24, Cis-3-[2-[4-(8-chloro-5-hydroxy-4-oxo-chromen-2-yl)phenoxy]ethoxy]cyclobutanecarboxylic acid] | 4830 nM | 1140 nM |  | 
O=c1cc(-c2ccc(OCCO[C@H]3C[C@@H](C(=O)O)C3)c(F)c2)oc2c(Cl)cccc12 [Example 42, Cis-3-[2-[4-(8-chloro-4-oxo-chromen-2-yl)-2-fluoro-phenoxy]ethoxy]cyclobutanecarboxylic acid] | 580 nM | 610 nM |  | 
O=C(O)C1CC(OCCOc2ccc(-c3cc(=O)c4cc(C(F)(F)F)cc(Cl)c4o3)cc2)C1 (single isomer, unassigned) [Example 66-B, 3-[2-[4-[8-chloro-4-oxo-6-(trifluoromethyl)chromen-2-yl]phenoxy]ethoxy]cyclobutanecarboxylic acid] | 4780 nM | 13200 nM |  | 
N#Cc1ccc2c(=O)cc(-c3ccc(OCCOC4CC(C(=O)O)C4)cc3)oc2c1Cl (centres unmarked) [Example 23, 3-[2-[4-(8-chloro-7-cyano-4-oxo-chromen-2-yl)phenoxy]ethoxy]cyclobutanecarboxylic acid] | 7110 nM | 21100 nM |  | 
O=c1cc(-c2ccc(OCCO[C@H]3C[C@@H](C(=O)O)C3)cc2)oc2c(Cl)cccc12 [Example 1-A, cis-3-[2-[4-(8-chloro-4-oxo-chromen-2-yl)phenoxy]ethoxy]cyclobutanecarboxylic acid] | 720 nM | 140 nM |  | 
COc1ccc(Cl)c2oc(-c3ccc(OCCO[C@H]4C[C@@H](C(=O)O)C4)cc3)cc(=O)c12 [Example 25, Cis-3-[2-[4-(8-chloro-5-methoxy-4-oxo-chromen-2-yl)phenoxy]ethoxy]cyclobutanecarboxylic acid] | 930 nM | 1050 nM |  | 
O=C(O)C1CC(OCCOc2ccc(-c3cc(=O)c4cc(C5CC5)cc(Cl)c4o3)cc2)C1 (centres unmarked) [Example 67, 3-[2-[4-(8-chloro-6-cyclopropyl-4-oxo-chromen-2-yl)phenoxy]ethoxy]cyclobutanecarboxylic acid] | 2770 nM | 14100 nM |  | 
